Source: US9567302B2, “Carbamate compounds and of making and using same” (Abide Therapeutics, Inc., priority 2012, dated 2017)

Legend:
Assay type in all cases: biochemical
Set-up in all cases: from tissue; host or cells: mouse brain membrane fraction
Conditions in all cases: 30 min preincubation at 37° C.
MAGL = biological target: T1, MAGL (Mus musculus, UniProt O35678); assay: In vitro competitive activity-based protein profiling (FP-Rh), mouse MAGL
T1 sequence (O35678 1-303): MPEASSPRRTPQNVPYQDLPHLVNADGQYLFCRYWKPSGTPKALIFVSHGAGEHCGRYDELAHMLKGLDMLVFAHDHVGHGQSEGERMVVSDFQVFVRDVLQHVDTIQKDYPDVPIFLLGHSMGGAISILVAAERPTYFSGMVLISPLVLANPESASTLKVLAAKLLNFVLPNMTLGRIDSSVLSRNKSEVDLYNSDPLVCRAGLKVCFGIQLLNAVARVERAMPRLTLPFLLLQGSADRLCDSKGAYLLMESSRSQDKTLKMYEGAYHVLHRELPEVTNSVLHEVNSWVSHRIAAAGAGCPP
Experimental: (§1) In Vitro Competitive Activity-Based Protein Profiling.
(§2) Proteomes (mouse brain membrane fraction or cell lysates) (50 μL, 1.0 mg/ml total protein concentration) were preincubated with varying concentrations of inhibitors at 37° C. After 30 min, FP-Rh (1.0 μL, 50 μM in DMSO) was added and the mixture was incubated for another 30 min at 37° C. Reactions were quenched with SDS loading buffer (50 μL—4×) and run on SDS-PAGE.

FAAH = biological target: T2, FAAH (Mus musculus, UniProt O08914); assay: In vitro competitive activity-based protein profiling (FP-Rh), mouse FAAH
T2 sequence (O08914 1-579): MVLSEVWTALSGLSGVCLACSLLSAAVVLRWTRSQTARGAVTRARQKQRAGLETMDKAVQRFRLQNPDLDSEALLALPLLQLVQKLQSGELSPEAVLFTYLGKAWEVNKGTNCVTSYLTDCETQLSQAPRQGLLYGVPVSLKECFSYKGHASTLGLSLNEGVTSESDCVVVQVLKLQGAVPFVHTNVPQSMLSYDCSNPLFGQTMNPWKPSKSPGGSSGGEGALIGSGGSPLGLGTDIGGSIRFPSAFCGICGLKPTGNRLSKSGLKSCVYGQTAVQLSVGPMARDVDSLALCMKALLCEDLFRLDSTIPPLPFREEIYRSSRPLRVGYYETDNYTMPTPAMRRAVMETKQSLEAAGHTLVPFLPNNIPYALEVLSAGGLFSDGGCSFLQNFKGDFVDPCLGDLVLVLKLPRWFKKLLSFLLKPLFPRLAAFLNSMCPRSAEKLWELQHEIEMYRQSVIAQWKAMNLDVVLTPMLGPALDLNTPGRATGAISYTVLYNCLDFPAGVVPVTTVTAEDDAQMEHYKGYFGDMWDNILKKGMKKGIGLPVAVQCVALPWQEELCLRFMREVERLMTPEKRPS
Experimental: as §1, §2

ABHD6 = biological target: T3, ABHD6 (Mus musculus, UniProt Q8R2Y0); assay: In vitro competitive activity-based protein profiling (FP-Rh), mouse ABHD6
T3 sequence (Q8R2Y0 1-336): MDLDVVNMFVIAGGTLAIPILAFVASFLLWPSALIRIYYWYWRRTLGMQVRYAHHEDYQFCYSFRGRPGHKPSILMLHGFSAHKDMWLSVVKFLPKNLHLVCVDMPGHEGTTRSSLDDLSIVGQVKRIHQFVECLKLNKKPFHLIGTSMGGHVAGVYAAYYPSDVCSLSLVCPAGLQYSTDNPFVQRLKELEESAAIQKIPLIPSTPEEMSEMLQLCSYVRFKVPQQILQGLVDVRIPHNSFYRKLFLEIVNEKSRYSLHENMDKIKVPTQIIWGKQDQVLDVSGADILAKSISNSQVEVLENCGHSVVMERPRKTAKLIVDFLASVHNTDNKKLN
Experimental: as §1, §2

Row | SMILES | IC50 (MAGL; Table 2, mouse proteome) [nM] | IC50 (FAAH; Table 2, mouse proteome) [nM] | IC50 (ABHD6; Table 2, mouse proteome) [nM] | IC50 (MAGL; Table 1, mouse proteome) [nM] | IC50 (FAAH; Table 1, mouse proteome) [nM] | IC50 (ABHD6; Table 1, mouse proteome) [nM]
1 | Cc1nc(-c2ccccc2)oc1CN1CCN(C(=O)ON2C(=O)CCC2=O)CC1 [Example 143, 2,5-Dioxopyrrolidin-1-yl 4-((4-methyl-2-phenyloxazol-5-yl)methyl)piperazine-1-carboxylate] | 100 to 1000 | > 10000 | 1000 to 10000 |  |  | 
2 | O=C(ON1C(=O)CCC1=O)N1CCN(Cc2ccc(Cl)cc2N2CCOC3CCCC32)CC1 (stereo not drawn) [Example 131, 2,5-Dioxopyrrolidin-1-yl 4-(4-chloro-2-(hexahydrocyclopenta[b][1,4]oxazin-4(4aH)-yl)benzyl)piperazine-1-carboxylate] | < 100 | > 10000 | 1000 to 10000 |  |  | 
3 | C#CCCCCNC(=O)ON1C(=O)CCC1=O [Example 28, 2,5-Dioxopyrrolidin-1-yl N-(hex-5-yn-1-yl)carbamate] |  |  |  | > 10000 | 1000 to 10000 | 1000 to 10000
4 | O=C(ON1C(=O)CCC1=O)N1CCN(Cc2ccc(Br)cc2N2CCOCC2)CC1 [Example 66, 2,5-Dioxopyrrolidin-1-yl 4-(4-bromo-2-morpholinobenzyl)piperazine-1-carboxylate] | < 100 | 1000 to 10000 | 1000 to 10000 |  |  | 
5 | O=C(ON1C(=O)CCC1=O)N1CCN(Cc2cc(Cl)cc(N3CCCCC3)c2)CC1 [Example 132, 2,5-Dioxopyrrolidin-1-yl 4-(3-chloro-5-(piperidin-1-yl)benzyl)piperazine-1-carboxylate] | < 100 | > 10000 | 100 to 1000 |  |  | 
6 | CCN(Cc1ccccc1)C(=O)ON1C(=O)CCC1=O [Example 9, 2,5-Dioxopyrrolidin-1-yl N-benzyl-N-ethylcarbamate] |  |  |  | > 10000 | > 10000 | > 10000
7 | O=C1CCC(=O)N1OC(=O)N1CCCCC1c1ccccc1 (stereo not drawn) [Example 23, 2,5-Dioxopyrrolidin-1-yl 2-phenylpiperidine-1-carboxylate] |  |  |  | > 10000 | > 10000 | > 10000
8 | CC(=O)N1CCN(c2cc(Cl)ccc2CN2CCN(C(=O)ON3C(=O)CCC3=O)CC2)CC1 [Example 115, 2,5-Dioxopyrrolidin-1-yl 4-{[2-(4-acetylpiperazin-1-yl)-4-chlorophenyl]methyl}piperazine-1-carboxylate] | 100 to 1000 | > 10000 | 1000 to 10000 |  |  | 
9 | O=C(ON1C(=O)CCC1=O)N1CCN(Cc2cccc(F)c2N2CCOCC2)CC1 [Example 93, 2,5-dioxopyrrolidin-1-yl 4-{[3-fluoro-2-(morpholin-4-yl)phenyl]methyl}piperazine-1-carboxylate] | 100 to 1000 | > 10000 | > 10000 |  |  | 
10 | O=C(ON1C(=O)CCC1=O)N1CCOCC1 [Example 38, 2,5-Dioxopyrrolidin-1-yl morpholine-4-carboxylate] |  |  |  | > 10000 | > 10000 | > 10000
11 | O=C(ON1C(=O)CCC1=O)N1CCN(Cc2cccc(Cl)c2N2CCCC2)CC1 [Example 106, 2,5-Dioxopyrrolidin-1-yl 4-{[3-chloro-2-(pyrrolidin-1-yl)phenyl]methyl}piperazine-1-carboxylate] | < 100 | > 10000 | 1000 to 10000 |  |  | 
12 | CN(C)C(=O)ON1C(=O)CCC1=O [Example 57, 2,5-Dioxopyrrolidin-1-yl dimethylcarbamate] |  |  |  | > 10000 | > 10000 | > 10000
13 | O=C(ON1C(=O)CCC1=O)N1CCN(Cc2ccc(-n3cccn3)c(F)c2)CC1 [Example 108, 2,5-Dioxopyrrolidin-1-yl 4-(3-fluoro-4-(1H-pyrazol-1-yl)benzyl)piperazine-1-carboxylate] | 1000 to 10000 | > 10000 | 1000 to 10000 |  |  | 
14 | Cc1cc(N2CCCC2)ccc1CN1CCN(C(=O)ON2C(=O)CCC2=O)CC1 [Example 68, 2,5-Dioxopyrrolidin-1-yl 4-(2-methyl-4-(pyrrolidin-1-yl)benzyl)piperazine-1-carboxylate] | 100 to 1000 | 1000 to 10000 | 100 to 1000 |  |  | 
15 | Cc1c(CN2CCN(C(=O)ON3C(=O)CCC3=O)CC2)cccc1N1CCOCC1 [Example 121, 2,5-Dioxopyrrolidin-1-yl 4-(2-methyl-3-morpholinobenzyl)piperazine-1-carboxylate] | < 100 | > 10000 | 100 to 1000 |  |  | 
16 | CN(Cc1cccc(-c2cccnc2)c1)C(=O)ON1C(=O)CCC1=O [Example 13, 2,5-Dioxopyrrolidin-1-yl N-methyl-N-{[3-(pyridin-3-yl)phenyl]methyl}carbamate] |  |  |  | > 10000 | > 10000 | > 10000
17 | Cc1nc(N2CCCCC2)sc1CN1CCN(C(=O)ON2C(=O)CCC2=O)CC1 [Example 148, 2,5-Dioxopyrrolidin-1-yl 4-((4-methyl-2-(piperidin-1-yl)thiazol-5-yl)methyl)piperazine-1-carboxylate] | 1000 to 10000 | > 10000 | 1000 to 10000 |  |  | 
18 | COc1ccc(N2CCN(C(=O)ON3C(=O)CC(c4ccccc4)C3=O)CC2)cc1 (stereo not drawn) [Example 54, 2,5-Dioxo-3-phenylpyrrolidin-1-yl 4-(4-methoxyphenyl)piperazine-1-carboxylate] |  |  |  | 1000 to 10000 | 1000 to 10000 | < 100
19 | O=C(C1CCCCN1C(=O)ON1C(=O)CCC1=O)N1CCOCC1 (stereo not drawn) [Example 16, 2,5-Dioxopyrrolidin-1-yl 2-(morpholine-4-carbonyl)piperidine-1-carboxylate] |  |  |  | > 10000 | > 10000 | > 10000
20 | O=C(ON1C(=O)CCC1=O)N1CCN(Cc2ccc(N3CCCC3)c(F)c2)CC1 [Example 75, 2,5-Dioxopyrrolidin-1-yl 4-(3-fluoro-4-(pyrrolidin-1-yl)benzyl)piperazine-1-carboxylate] | 100 to 1000 | > 10000 | 1000 to 10000 |  |  | 
21 | Cc1nc(-c2cccc(CN(C)C(=O)ON3C(=O)CCC3=O)c2)no1 [Example 14, 2,5-Dioxopyrrolidin-1-yl N-methyl-N-{[3-(5-methyl-1,2,4-oxadiazol-3-yl)phenyl]methyl}carbamate] |  |  |  | 1000 to 10000 | > 10000 | 100 to 1000
22 | O=C(ON1C(=O)CCC1=O)N1CCN(Cc2ccc(Cl)cc2-n2cc(Cl)cn2)CC1 [Example 95, 2,5-Dioxopyrrolidin-1-yl 4-(4-chloro-2-(4-chloro-1H-pyrazol-1-yl)benzyl)piperazine-1-carboxylate] | < 100 | > 10000 | 100 to 1000 |  |  | 
23 | O=C(ON1C(=O)CCC1=O)N1CCN(Cc2ccc(Cl)cc2N2CC3CCC(C2)O3)CC1 [Example 130, 2,5-Dioxopyrrolidin-1-yl 4-(2-(8-oxa-3-azabicyclo[3.2.1]octan-3-yl)-4-chlorobenzyl)piperazine-1-carboxylate] | < 100 | > 10000 | 1000 to 10000 |  |  | 
24 | O=C(ON1C(=O)CCC1=O)N1CCN(Cc2ccc(Cl)cc2-n2cccn2)CC1 [Example 84, 2,5-Dioxopyrrolidin-1-yl 4-(4-chloro-2-(1H-pyrazol-1-yl)benzyl)piperazine-1-carboxylate] | 100 to 1000 | > 10000 | 1000 to 10000 |  |  | 
25 | O=C(ON1C(=O)CNC1=O)N1CCCCC1 [Example 61, 2,5-Dioxoimidazolidin-1-yl piperidine-1-carboxylate] |  |  |  | > 10000 | > 10000 | > 10000
26 | O=C1CCC(=O)N1OC(=O)N1CCCCC1Cc1ccccc1 (stereo not drawn) [Example 22, 2,5-Dioxopyrrolidin-1-yl 2-benzylpiperidine-1-carboxylate] |  |  |  | > 10000 | > 10000 | > 10000
